Data from US4487716A, “N-(1-Carboxy-3-phenylpropyl)-dipeptides” (American Home Products Corporation, priority 1982, dated 1984).

Experiments:
[1] = tested on: male spontaneously hypertensive rats; assay: Systolic blood pressure in male spontaneously hypertensive rats after oral administration; format: in vivo; details: groups of four rats; for Blood Pressure: systolic; for effect on systolic blood pressure (in words): oral administration
Method: Blood pressures were read prior to drug administration and at 1.5, 4 and 24 hours thereafter using a Decker Caudal Plethysmograph.

[2] = molecular target: T1, angiotensin converting enzyme (Oryctolagus cuniculus, UniProt P12822); assay: Inhibition of hippuryl-L-histidyl-L-leucine hydrolysis by angiotensin converting enzyme; format: biochemical; details: rabbit lung ACE, substrate HHL 5 mM, 37° C., 30 min
T1 construct: A crude angiotensin converting enzyme supernatant is obtained by blending 1 gm. of rabbit lung acetone powder; tissue PelFreez Biologicals; host or cells: rabbit lung acetone powder
T1 sequence (P12822 34-1310): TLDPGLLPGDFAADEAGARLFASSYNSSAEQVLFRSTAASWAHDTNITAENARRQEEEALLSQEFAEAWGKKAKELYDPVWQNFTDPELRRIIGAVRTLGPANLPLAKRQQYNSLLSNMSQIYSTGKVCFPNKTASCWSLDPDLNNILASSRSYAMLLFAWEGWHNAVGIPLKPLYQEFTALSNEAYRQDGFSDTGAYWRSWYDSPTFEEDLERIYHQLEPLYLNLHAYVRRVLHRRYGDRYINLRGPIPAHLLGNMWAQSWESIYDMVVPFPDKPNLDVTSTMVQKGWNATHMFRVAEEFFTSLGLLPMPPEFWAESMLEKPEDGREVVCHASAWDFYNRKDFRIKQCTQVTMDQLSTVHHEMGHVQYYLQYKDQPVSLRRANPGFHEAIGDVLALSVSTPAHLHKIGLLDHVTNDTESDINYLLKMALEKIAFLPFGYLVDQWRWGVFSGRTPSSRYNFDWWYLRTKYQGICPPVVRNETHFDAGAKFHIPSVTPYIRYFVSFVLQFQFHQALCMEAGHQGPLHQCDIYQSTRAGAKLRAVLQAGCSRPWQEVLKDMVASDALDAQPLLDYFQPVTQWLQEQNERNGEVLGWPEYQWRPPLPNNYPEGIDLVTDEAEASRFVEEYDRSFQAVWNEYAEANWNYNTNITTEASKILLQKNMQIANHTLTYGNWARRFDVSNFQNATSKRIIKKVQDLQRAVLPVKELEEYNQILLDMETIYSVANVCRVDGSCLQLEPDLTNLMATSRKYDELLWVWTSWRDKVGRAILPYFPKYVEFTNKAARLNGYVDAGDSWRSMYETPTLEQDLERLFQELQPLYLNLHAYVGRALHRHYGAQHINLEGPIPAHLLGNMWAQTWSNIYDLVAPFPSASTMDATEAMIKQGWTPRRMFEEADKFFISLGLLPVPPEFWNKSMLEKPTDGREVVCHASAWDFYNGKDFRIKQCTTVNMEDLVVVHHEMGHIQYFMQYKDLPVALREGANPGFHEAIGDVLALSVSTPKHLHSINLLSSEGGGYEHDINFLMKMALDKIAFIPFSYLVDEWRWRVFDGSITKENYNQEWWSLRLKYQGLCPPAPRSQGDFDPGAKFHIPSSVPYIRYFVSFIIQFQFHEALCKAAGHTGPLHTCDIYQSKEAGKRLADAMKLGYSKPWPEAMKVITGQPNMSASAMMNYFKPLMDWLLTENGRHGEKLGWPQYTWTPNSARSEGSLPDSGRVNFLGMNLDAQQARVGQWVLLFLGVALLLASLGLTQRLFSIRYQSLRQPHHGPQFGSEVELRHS
Method: The activity of the compounds of this invention was established by incubation of hippuryl-L-histidyl-L-leucine at 37° C. with angiotensin converting enzyme by the following procedure:
A crude angiotensin converting enzyme supernatant is obtained by blending 1 gm. of rabbit lung acetone powder (PelFreez Biologicals) with 35 ml. of 50 mM (buffered) potassium phosphate, pH 8.3 and centrifuging for 45 min. at 40,000×g.
The specific angiotensin converting enzyme substrate Hippuryl-L-histidyl-L-leucine (HHL-Sigma Chem. Co.) is prepared at 5 mM in 200 mM potassium phosphate buffer containing 757 mM NaCl at pH 8.3.
Incubation for the assay of HHL hydrolysis by angiotensin converting enzyme is carried out in a 37° C. gyrorotary incubator in disposable 13×100 mm tubes. Each 0.25 ml assay mixture contains the following components at the final concentrations: potassium phosphate buffer, 100 mM; NaCl, 300 mM; HHL, 5 mM; and enzyme 0.15 ml (10 mU approx.) added last to initiate the reaction. Zero time controls have 0.25 ml of 2N HCl added before the enzyme. The timed reactions are terminated with acid at 30 min. similarly and the hippuric acid freed from substrate is extracted into 1.5 ml of ethyl acetate layer is transferred to a clean tube. […]
The hippuric acid is resuspended in 1.0 ml of water, the absorbance at […] is determined, and the amount present is calculated from a standard curve. […]

IC50 [2] [nM]	Compound	Blood Pressure ([1]; 50 mg/kg PO, 1.5 hours) [mmHg]	Blood Pressure ([1]; 50 mg/kg PO, 4 hours) [mmHg]	Blood Pressure ([1]; 50 mg/kg PO, 24 hours) [mmHg]	effect on systolic blood pressure (in words) [1]	Blood Pressure ([1]; 150 mg/kg PO, 1.5 hours) [mmHg]	Blood Pressure ([1]; 150 mg/kg PO, 4 hours) [mmHg]
	N^α -(DL-1-carboxy-3-phenylpropyl)-L-lysyl-N-p-methoxyphenylglycine [Example 3]	183	181	204	reduce systolic blood pressure		
146	NCCCC[C@H](NC(CCc1ccccc1)C(=O)O)C(=O)N(CC(=O)O)c1ccccc1 (mixture of isomers) [Example 2, N^α -(DL-1-carboxy-3-phenylpropyl)-L-lysyl-N-phenylglycine]				reduce systolic blood pressure	196	194
